Data taken from US7951595B2, “Methods for screening modulators of SLC17-type anion transport activity” (National University Corporation Okayama University, priority 2007, dated 2011).

T1: human SLC17A9 (Homo sapiens, UniProt Q9BYT1, N228S)
T1 construct: His6 (from pDEST10 vector); made in house; host or cells: insect cells, baculovirus system (Sf9 named for virus production)
T1 sequence (Q9BYT1 1-430 isoform Q9BYT1-2 N222S): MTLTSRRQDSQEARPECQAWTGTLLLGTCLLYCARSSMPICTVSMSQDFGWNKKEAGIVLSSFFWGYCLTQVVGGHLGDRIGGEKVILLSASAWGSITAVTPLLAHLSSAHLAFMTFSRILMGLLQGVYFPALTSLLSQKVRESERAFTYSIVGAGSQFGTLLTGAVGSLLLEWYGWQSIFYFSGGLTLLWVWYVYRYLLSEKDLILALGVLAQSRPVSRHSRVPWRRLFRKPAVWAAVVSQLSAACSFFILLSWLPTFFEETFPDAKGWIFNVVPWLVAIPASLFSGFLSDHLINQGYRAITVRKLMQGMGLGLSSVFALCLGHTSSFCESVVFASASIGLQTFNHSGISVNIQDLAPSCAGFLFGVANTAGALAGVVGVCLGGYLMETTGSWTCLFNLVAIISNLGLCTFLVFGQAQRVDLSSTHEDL

T2: mouse SLC17A9 (mSLC17A9) (Mus musculus, UniProt Q8VCL5)
T2 construct: His6 (from pDEST10 vector) (N); made in house; host or cells: insect cells, baculovirus system (Sf9 named for virus production)
T2 sequence (Q8VCL5 1-447): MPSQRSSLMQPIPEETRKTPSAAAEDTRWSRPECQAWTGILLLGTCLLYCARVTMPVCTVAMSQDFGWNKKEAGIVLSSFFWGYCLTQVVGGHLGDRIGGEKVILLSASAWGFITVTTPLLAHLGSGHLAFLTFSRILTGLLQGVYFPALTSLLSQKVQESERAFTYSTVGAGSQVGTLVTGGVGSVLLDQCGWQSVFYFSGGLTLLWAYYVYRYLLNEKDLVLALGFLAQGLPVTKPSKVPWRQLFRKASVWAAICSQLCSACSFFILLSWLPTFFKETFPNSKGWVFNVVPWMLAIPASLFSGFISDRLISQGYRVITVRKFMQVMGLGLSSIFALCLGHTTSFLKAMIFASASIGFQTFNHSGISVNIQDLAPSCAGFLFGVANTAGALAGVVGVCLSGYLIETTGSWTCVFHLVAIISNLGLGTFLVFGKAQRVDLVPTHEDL

B1: human SLC17A9 (Homo sapiens; N228S) (protein)
chain: T1 sequence (Q9BYT1 1-430 isoform Q9BYT1-2 N222S)
B2: mouse SLC17A9 (mSLC17A9) (Mus musculus) (protein)
chain: T2 sequence (Q8VCL5 1-447)

Tests used:
PC12 cells = test: KCl-dependent ATP release after SLC17A9 knockdown; type: cell-based, rat; conditions: 25 nM siRNA, 3 days, KCl stimulus 30 minutes, FIG. 19(B)
Description: (§1) Knockdown of SLC17A9 by RNAi was carried out as follows. A sequence for RNAi designed by Qiagen HP OnGuard siRNA Design was used. The nucleic acid sequence of the RNAi used was […] (SEQ ID NO: 15). This sequence and HiPerFect transfection reagent (Qiagen) were used for transfection of 25 nM AllStars negative control siRNA or 25 nM rat SLC17A9 siRNA, and the resultant was cultured for 3 days, to thereby perform knockdown of SLC17A9. […] The amounts of SCL17A9 mRNA in the knocked-down cells (RNAi) and control cells (control) were measured by real-time PCR, and as shown in FIG. 19(A), the amount of SLC17A9 mRNA was decreased by RNAi.

SLC17A9 mRNA = test: Knockdown of SLC17A9 by RNAi, SLC17A9 mRNA by real-time PCR; type: cell-based; conditions: 25 nM rat SLC17A9 siRNA, cultured 3 days, versus control siRNA, FIG. 19(A)
Description: as §1

human SLC17A9 = target: T1, human SLC17A9; test: Nucleotide transport by human SLC17A9 reconstituted proteoliposomes (valinomycin-induced membrane potential, radiolabelled substrate); type: biochemical; conditions: for uptake of ADP and GTP into SLC17A9 reconstituted proteoliposomes over time: 100 μM each, FIG. 16; for effect of nucleotides on ATP transport: nucleotide 1 mM, FIG. 15
Description: 10 μg of purified SLC17A9 and 0.5 mg of soybean-derived lipids were mixed and incubated at −80° C. for 5 minutes or more. The mixture was thawed quickly by holding the tube in the hands, and was diluted 60-fold with a buffer solution containing 20 mM MOPS-Tris (pH 7.0), 0.15M sodium acetate, 2 mM magnesium acetate and 0.5 mM DTT. This dilution was centrifuged at 200,000×g at 4° C. for one hour, the supernatant was discarded, and the precipitate was resuspended in a buffer solution containing 20 mM MOPS-Tris (pH 7.0), 0.15M sodium acetate, 2 mM magnesium acetate and 0.5 mM DTT, to obtain SLC17A9 reconstituted proteoliposomes. As a control, liposomes without SLC17A9 were used.
The nucleotide transport activity was measured by the following procedure. The reconstituted proteoliposomes were incubated in a buffer solution containing 20 mM MOPS-Tris (pH 7.0), 0.15M potassium acetate, 2 mM magnesium acetate and 4 mM potassium chloride, at 27° C. for 2 minutes, and valinomycin was added thereto to a final concentration of 2 μM. The mixture was incubated for further 2 minutes. The point of addition of 0.1 mM [α-^32P]ATP (3.7 GBq/mmol) was defined as the initiation of activity measurement. At a predetermined time point, 130 μL of the reaction liquid was recovered and centrifuged through a Sephadex G-50 (fine) spin column at 760×g for 2 minutes. The uptake of ATP was measured by measuring the radioactivity included in the reaction liquid that had passed through the column using a liquid scintillation counter. In the measurement of the transport activity for ADP and GTP, [2,8-^3H]ADP (0.37 GBq/mmol) and [α-^32P]GTP (3.7 GBq/mmol) were used instead of ATP as the substrate.
In an experiment for an inhibitor, a predetermined concentration of an inhibitor was added upon incubation of the proteoliposomes.

mouse SLC17A9 (mSLC17A9) = target: T2, mouse SLC17A9 (mSLC17A9); test: ATP transport by reconstituted mSLC17A9 protein proteoliposomes; type: biochemical; conditions: added at 2 mM, uptake for 2 minutes, FIG. 22
Description: 20 μg of the purified mSLC17A9 protein and 0.5 mg of soybean-derived lipids were mixed, and the mixture was incubated at −80° C. for 5 minutes or longer. This mixture was thawed quickly by holding the tube in the hands, and was diluted 30-fold with a buffer solution containing 20 mM MOPS-Tris (pH 7.0), 0.15M sodium acetate, 2 mM magnesium acetate and 0.5 mM DTT. This dilution was centrifuged at 200,000×g at 4° C. for one hour, the supernatant was discarded, and the precipitate was resuspended in a buffer solution containing 20 mM MOPS-Tris (pH 7.0), 0.15M sodium acetate, 2 mM magnesium acetate and 0.5 mM DTT, to achieve reconstitution. […] The mixture was further incubated for 2 minutes. […] Furthermore, in an inhibitor test, an inhibitor at a predetermined concentration was added in the case of incubating the proteoliposomes.

[1] = substrate: Nc1ncnc2c1ncn2[C@@H]1O[C@H](COP(=O)(O)OP(=O)(O)OP(=O)(O)O)[C@@H](O)[C@H]1O; test: cells, lysate or membranes named; conditions: other: human SLC17A9 proteoliposomes, ATP uptake at various concentrations; pH 7.0; 27.0 °C
[2] = substrate: Nc1ncnc2c1ncn2[C@@H]1O[C@H](COP(=O)(O)OP(=O)(O)OP(=O)(O)O)[C@@H](O)[C@H]1O; test: purified protein, by the assay type; conditions: other: reconstituted mSLC17A9, membrane potential-dependent transport, calculated using KaleidaGraph; pH 7.0; 27.0 °C

Row | Molecule | uptake of ADP and GTP into SLC17A9 reconstituted proteoliposomes over time (human SLC17A9) | effect of nucleotides on ATP transport (human SLC17A9) | inhibition of radioactive ATP uptake (mouse SLC17A9 (mSLC17A9)) | further results
1 | SLC17A9 RNAi: RNAi of sequence UAUUCGAGAGAAUGUCACG (SEQ ID NO: 15) for knockdown of SLC17A9 (listed as RNA, chemistry not given here) | – | – | – | KCl-dependent ATP release (PC12 cells): suppressed; amount of SLC17A9 mRNA (SLC17A9 mRNA): decreased
2 | Nc1ncnc2c1ncn2[C@@H]1O[C@H](COP(=O)(O)OP(=O)(O)O)[C@@H](O)[C@H]1O [ADP, adenosine diphosphate] | actually taken up | recognized as transport substrates | compete with ATP | –
3 | Nc1nc2c(ncn2[C@@H]2O[C@H](COP(=O)(O)OP(=O)(O)OP(=O)(O)O)[C@@H](O)[C@H]2O)c(=O)[nH]1 [GTP] | actually taken up | recognized as transport substrates | compete with ATP | –
4 | B1 | – | – | – | Km [1]: 800 µM
5 | B2 | – | – | – | Km [2]: 230 µM; Vmax [2]: 23.8 nmol/min/mg of protein
